Consider six molecules from patent publication US20250243180A1, “TARGETED PROTEIN DEGRADATION” (Monte Rosa Therapeutics AG, priority 2023, published 2025).

The target of one assay is CRBN-DDB1 (Homo sapiens (Human), UniProt Q96SW2). As to the kind of experiment: Compound binding to CRBN by HTRF assay. The method, boiled down:
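HTRF displacement of Cy5-thalidomide probe (100 nM) from His-tagged CRBN-DDB1 (2.5 nM) with anti-His terbium cryptate, in HEPES/NaCl/TCEP/EDTA/Tween20 buffer; 11-point 1:3 dilution series, 30 min at ambient temperature. Signal (665/620 nm) normalized to lenalidomide and DMSO controls; EC50 fitted, Ki by Cheng-Prusoff from geometric mean EC50.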
On the technique in general: TR-FRET usually uses a lanthanide donor and a delayed reading to cut background.

For assay [1], the system named is Caspase-1 activity. As to the kind of experiment: Caspase-1 activity in human monocyte-derived macrophages, LPS/nigericin stimulation. It counts as cell-based. The note with it: Macrophage, 24 h pre-treatment, LPS 3 h then 10 μM nigericin 1 h, read-out: Caspase-1 IC50 (NIG). As to the method: (§1) Human monocytes were enriched and isolated from a buffy coat of healthy donor whole blood with a RosetteSep™ Human Monocyte Enrichment Cocktail (Cat.No. 15068, StemCell) and Ficoll-Plaque PLUS (Cat.No. H8889, Sigma). Monocytes were differentiated into macrophages by treatment with 100 ng/mL M-CSF for 6 days at 37° C., 5% CO2. Differentiated macrophages were seeded overnight (50,000 cells/well) in 100 µL of medium in a 96-well, white-bottom plate at 37° C., 5% CO2. Cells were treated with a concentration range of MGD for 24 hours prior to stimulation with nigericin. Macrophages were primed with […] LPS for 3 h followed by 1 h stimulation with 10 μM nigericin. Media of stimulated macrophages were collected and assayed for caspase 1 activity directly (Promega G9951), according to manufacturer's instructions. For IL-1β release assay, media of stimulated macrophages were collected and stored at −20° C., then thawed at 4° C. before assaying for IL-1β activity (Promega W6011), according to manufacturer's instructions.

The next assay deals with NEK7 (Homo sapiens (Human), UniProt Q8TDX7+Q96SW2). Nature of the assay: NEK7 NanoBiT degradation assay in Cal51 NEK7 NanoBiT cell line. Type of assay: cell-based. The note with it: Cal51 NEK7 NanoBiT cells, 24 hours; for Dmax: CAL-51. The method, boiled down: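 Cal51 cells with CRISPR knock-in HiBiT-tagged endogenous NEK7 plus stable LgBiT, in live-cell Endurazine medium, seeded 16 h before dosing. Compounds at final 1 μM to 0.05 nM for 24 h at 37 °C, then luminescence read. Response normalized to plate controls and fitted with a 4-parameter logistic giving EC50.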

The subject of another assay is IL-1β release. As to the kind of experiment: IL-1β release in human monocyte-derived macrophages, LPS/nigericin stimulation. It counts as cell-based. The note with it: Macrophage, 24 h pre-treatment, LPS 3 h then 10 μM nigericin 1 h, read-out: IL-1b IC50 (NIG). How it is done:
as §1

The subject of assay [2] is New Zealand White rabbits, MSU crystal gout model. As to the kind of experiment: In vivo rabbit gout model (intra-articular MSU): joint swelling and CD31 staining. The note with it: daily prophylactic treatment. How it is done:
MSU crystals were prepared by dissolving uric acid (Aladdin, cat #U105582) in boiling water (1 g in 200 mL with 6 mL of 1 N NaOH). PH value was adjusted to 7.2 by HCl. The solution was stirred and cooled to room temperature and stored at 4° C. overnight. The precipitate was filtered with filter paper and dried under low heat to obtain MSU crystals. New Zealand White rabbits received an intra-articular injection of 1 mL of MSU crystals (50 mg/mL) into both knees (MSU group) or PBS (as vehicle, control group). n=10 for MSU groups; n=6 for PBS group.
For immunohistochemistry, bone sections were stained with anti-CD31 (Abcam #ab9498) diluted at 1:500. The nuclei were stained with hematoxylin. Slides were scanned using LEICA Aperio GT450 at 400× magnification. The number of positive blood vessels were counted blindly.
(a) To determine NEK7 degradation, spleens and peripheral blood mononuclear cells (PBMC) were analyzed by JESS for NEK7 and normalized to α-Tubulin from five representative animals. (b) The degree of joint swelling was determined by caliper measurements at the indicated time points. (c) Rabbit bone tissue sections were stained and quantified for anti-CD31 immunohistochemistry. Results expressed as mean±SEM. Statistical analysis was performed using two-way ANOVA. The difference was considered significant when p<0.05.

A further assay concerns IL-1β. As to the kind of experiment: IL-1β in human monocyte-derived macrophages, LPS/MSU stimulation. The note with it: 24 h pre-treatment, LPS + MSU 6 h, eight donors. Type of assay: cell-based. How it is done: (§2) Human monocytes were enriched and isolated from a buffy coat of whole blood with a RosetteSep™ Human Monocyte Enrichment Cocktail (Cat.No. 15068, StemCell) and Ficoll-Plaque PLUS (Cat.No. H8889, Sigma). Monocytes were differentiated into macrophages by treatment with 100 ng/mL M-CSF for 6 days at 37° C., 5% CO2. Differentiated macrophages were seeded overnight (50,000 cells/well) in 100 μL of medium in a 96-well white-bottom plate at 37° C., 5% CO2. Cells were treated with a concentration range of MGD or the NLRP3 inhibitor selnoflast (Cat.No. HY-132831, MedChemExpress) for 24 h prior to stimulation with monosodium urate crystals (MSU). Macrophages were stimulated with […] lipopolysaccharide (LPS) and 0.2 mg/mL MSU for 6 h. Medium of stimulated macrophages were collected and assayed for caspase-1 activity directly (Promega G9951) as well as IL-1β (Promega W6010), according to manufacturer's instructions.
(§3) (a, b) Human monocyte-derived macrophages pre-treated with a dose-response of Compound 14 or selnoflast (NLRP3 inhibitor) for 24 h and stimulated with a combination of lipopolysaccharide (LPS) and monosodium urate crystals (MSU) for 6 h prior to supernatant collection. Monocytes were isolated from eight human donors. Caspase-1 (a) and IL-1β (b) in the supernatant are measured and data are expressed as percentage relative to mean values of DMSO conditions for each donor (technical triplicates). Means of eight donors are plotted and analyzed using a four-parameter logistic regression model.

Assay [3] concerns Caspase-1 activity. Nature of the assay: Caspase-1 activity in human monocyte-derived macrophages, LPS/MSU stimulation. The note with it: 24 h pre-treatment, LPS + MSU 6 h, eight donors. Type of assay: cell-based. As to the method:
as §2, §3

[4] abbreviates: NEK7 degradation, read-out: NanoBiT Dmax.
Where [5] appears, read: NEK7 degradation, read-out: NanoBiT DC50.

Like-named read-outs stand apart in the source and are kept apart here. Bounds are passed on as bounds.

Chain of CRBN-DDB1 (Q96SW2 whole entry): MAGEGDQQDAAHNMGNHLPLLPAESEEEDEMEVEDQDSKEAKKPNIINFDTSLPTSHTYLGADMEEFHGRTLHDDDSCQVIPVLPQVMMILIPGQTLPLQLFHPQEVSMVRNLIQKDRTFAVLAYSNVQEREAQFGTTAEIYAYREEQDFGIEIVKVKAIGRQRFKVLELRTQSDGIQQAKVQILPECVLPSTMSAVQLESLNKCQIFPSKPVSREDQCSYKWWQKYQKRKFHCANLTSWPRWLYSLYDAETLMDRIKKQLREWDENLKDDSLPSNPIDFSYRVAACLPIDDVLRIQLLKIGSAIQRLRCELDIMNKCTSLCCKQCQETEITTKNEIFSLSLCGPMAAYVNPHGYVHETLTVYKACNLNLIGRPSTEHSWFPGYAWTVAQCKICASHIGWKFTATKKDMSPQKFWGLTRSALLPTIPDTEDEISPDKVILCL
Chain of CRBN-DDB1 (Q16531 whole entry partner): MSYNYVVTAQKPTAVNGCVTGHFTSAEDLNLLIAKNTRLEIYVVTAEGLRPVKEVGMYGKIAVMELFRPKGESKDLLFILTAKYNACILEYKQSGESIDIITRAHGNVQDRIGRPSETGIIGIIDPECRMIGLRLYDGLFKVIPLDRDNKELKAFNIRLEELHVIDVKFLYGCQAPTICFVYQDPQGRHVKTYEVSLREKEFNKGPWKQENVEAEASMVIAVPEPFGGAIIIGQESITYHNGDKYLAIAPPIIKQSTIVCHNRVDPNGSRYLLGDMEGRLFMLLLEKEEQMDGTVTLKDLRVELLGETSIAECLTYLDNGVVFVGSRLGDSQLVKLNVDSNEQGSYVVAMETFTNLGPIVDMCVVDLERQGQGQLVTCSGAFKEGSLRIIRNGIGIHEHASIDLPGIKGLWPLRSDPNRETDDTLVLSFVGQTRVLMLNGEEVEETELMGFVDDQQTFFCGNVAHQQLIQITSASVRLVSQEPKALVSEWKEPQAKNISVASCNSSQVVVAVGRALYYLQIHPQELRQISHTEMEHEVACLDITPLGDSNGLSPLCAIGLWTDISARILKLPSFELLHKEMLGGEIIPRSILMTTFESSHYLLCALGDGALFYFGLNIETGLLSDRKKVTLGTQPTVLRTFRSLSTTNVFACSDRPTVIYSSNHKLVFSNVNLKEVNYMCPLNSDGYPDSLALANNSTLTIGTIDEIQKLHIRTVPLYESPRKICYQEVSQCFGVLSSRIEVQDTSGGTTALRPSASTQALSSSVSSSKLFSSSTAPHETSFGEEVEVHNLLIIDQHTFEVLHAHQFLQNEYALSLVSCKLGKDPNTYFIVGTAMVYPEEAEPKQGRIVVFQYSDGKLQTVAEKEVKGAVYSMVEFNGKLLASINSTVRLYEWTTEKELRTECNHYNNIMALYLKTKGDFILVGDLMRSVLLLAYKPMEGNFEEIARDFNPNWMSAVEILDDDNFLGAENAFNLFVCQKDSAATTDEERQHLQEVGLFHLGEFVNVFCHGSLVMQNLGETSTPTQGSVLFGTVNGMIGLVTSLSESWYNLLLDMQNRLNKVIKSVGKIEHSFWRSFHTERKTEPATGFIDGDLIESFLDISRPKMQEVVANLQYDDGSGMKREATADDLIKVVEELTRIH
Chain of NEK7 (Q8TDX7 whole entry): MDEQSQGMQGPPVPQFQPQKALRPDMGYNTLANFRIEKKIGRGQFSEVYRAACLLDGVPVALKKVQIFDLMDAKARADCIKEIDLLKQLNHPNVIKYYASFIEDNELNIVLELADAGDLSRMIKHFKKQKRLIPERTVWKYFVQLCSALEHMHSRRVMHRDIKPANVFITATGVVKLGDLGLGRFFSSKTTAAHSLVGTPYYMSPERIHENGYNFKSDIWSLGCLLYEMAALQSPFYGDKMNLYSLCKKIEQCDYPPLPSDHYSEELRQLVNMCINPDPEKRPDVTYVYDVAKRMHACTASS
Chain of NEK7 (Q96SW2 whole entry): as the sequence (Q96SW2 whole entry) above
Chain of NEK7 (Q16531 2-1140 partner): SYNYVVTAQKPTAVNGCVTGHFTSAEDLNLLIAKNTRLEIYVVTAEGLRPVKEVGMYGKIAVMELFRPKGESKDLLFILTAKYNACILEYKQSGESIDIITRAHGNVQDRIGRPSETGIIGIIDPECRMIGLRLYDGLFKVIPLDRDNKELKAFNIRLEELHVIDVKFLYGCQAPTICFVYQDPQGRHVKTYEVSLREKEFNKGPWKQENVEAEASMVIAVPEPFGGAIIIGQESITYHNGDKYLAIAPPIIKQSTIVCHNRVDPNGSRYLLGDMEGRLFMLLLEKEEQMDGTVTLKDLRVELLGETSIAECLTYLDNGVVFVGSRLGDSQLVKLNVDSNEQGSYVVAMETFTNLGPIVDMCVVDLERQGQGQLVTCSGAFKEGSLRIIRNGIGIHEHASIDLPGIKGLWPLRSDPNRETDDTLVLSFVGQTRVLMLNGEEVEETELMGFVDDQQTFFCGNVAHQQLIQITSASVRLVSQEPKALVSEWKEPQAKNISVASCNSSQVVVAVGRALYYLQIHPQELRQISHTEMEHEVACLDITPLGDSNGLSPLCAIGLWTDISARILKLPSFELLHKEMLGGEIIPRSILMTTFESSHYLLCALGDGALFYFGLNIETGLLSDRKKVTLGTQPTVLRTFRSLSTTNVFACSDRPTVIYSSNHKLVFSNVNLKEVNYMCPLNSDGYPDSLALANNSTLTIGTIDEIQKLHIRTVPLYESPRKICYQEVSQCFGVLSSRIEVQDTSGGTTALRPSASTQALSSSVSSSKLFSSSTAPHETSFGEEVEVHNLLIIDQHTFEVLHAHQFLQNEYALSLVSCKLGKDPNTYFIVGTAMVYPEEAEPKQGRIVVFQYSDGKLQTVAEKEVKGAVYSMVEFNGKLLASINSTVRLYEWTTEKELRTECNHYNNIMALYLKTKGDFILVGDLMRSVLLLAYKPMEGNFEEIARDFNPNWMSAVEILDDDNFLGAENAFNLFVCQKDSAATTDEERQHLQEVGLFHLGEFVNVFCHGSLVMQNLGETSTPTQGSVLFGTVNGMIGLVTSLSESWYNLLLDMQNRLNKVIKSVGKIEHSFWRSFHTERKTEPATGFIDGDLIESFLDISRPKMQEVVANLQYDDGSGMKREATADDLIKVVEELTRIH

The EC50 is the concentration that produces a half-maximal response. For orientation: IC50 means the concentration that gives 50% inhibition. Broadly, the Dmax is the largest share of the target that was removed. For orientation: DC50 means the concentration at which degradation of the target reaches its halfway point. As for `Cc1nnc(C(C)(C)C(=O)NCc2cc(Cl)c(C3CCC(=O)NC3=O)c(Cl)c2)o1` (stereo not shown) [Compound 110], the half-maximal effective concentration (EC50) on CRBN-DDB1 was 320 nM; at CRBN-DDB1 (HTRF class, Cereblon binding) it was 100 to 1000 nM. Moreover, the IC50 in the assay with Caspase-1 activity [1] came to 11.2 nM; with IL-1β release, 9.87 nM. Also, the Dmax at NEK7 (read-out: NEK7 NanoBiT Dmax) is 76%; on NEK7 (setting [4]), > 75%. In addition, the DC50 on NEK7 (read-out: NEK7 NanoBiT DC50) is 50 nM; on NEK7 (setting [5]) it was ≤ 100 nM.
`Cc1cnc(C(C)(C)C(=O)NCc2cc(Cl)c(C3CCC(=O)NC3=O)c(Cl)c2)cn1` (stereo not shown) [Compound 162]: the EC50 at CRBN-DDB1 is 290 nM; on CRBN-DDB1 (HTRF class, Cereblon binding), 100 to 1000 nM. The values for the IC50 in the assay on Caspase-1 activity [1] and in the assay with IL-1β release were 1.66 nM and 2.03 nM, respectively. Also, the Dmax at NEK7 (read-out: NEK7 NanoBiT Dmax) was 86%; at NEK7 (setting [4]) it was > 75%. Moreover, the DC50 is 13 nM at NEK7 (read-out: NEK7 NanoBiT DC50) and ≤ 100 nM at NEK7 (setting [5]).
With `CC(C)(C(=O)NCc1cc(Cl)c(C2CCC(=O)NC2=O)c(Cl)c1)c1ncc(C(F)F)cn1` (stereo not shown) [Compound 181, N-(3,5-dichloro-4-(2,6-dioxopiperidin-3-yl)benzyl)-2-(5-(difluoromethyl)pyrimidin-2-yl)-2-methylpropanamide], the EC50 on CRBN-DDB1 was 190 nM; at CRBN-DDB1 (HTRF class, Cereblon binding), 100 to 1000 nM. Moreover, the IC50 in the assay with Caspase-1 activity [1] stood at 1.95 nM; in the assay with IL-1β release, 1.96 nM. Besides, the figures for the Dmax at NEK7 (read-out: NEK7 NanoBiT Dmax) and on NEK7 (setting [4]) were 93% and > 75%, respectively. Moreover, the DC50 was 5 nM at NEK7 (read-out: NEK7 NanoBiT DC50) and ≤ 100 nM on NEK7 (setting [5]).
Regarding `CC(C)(C(=O)NCc1cc(Cl)c(C2CCC(=O)NC2=O)c(Cl)c1)c1ccc(C2CC2)nn1` (stereo not shown) [Compound 192], the EC50 at CRBN-DDB1 was 90 nM; on CRBN-DDB1 (HTRF class, Cereblon binding), ≤ 100 nM. In addition, the concentration for half-maximal inhibition (IC50) in the assay on Caspase-1 activity [1] stood at 0.75 nM; with IL-1β release, 0.94 nM. Moreover, the Dmax is 92% on NEK7 (read-out: NEK7 NanoBiT Dmax) and > 75% at NEK7 (setting [4]). Besides, the DC50 at NEK7 (read-out: NEK7 NanoBiT DC50) is 5 nM; on NEK7 (setting [5]), ≤ 100 nM.
`C[C@]12C=CC(=O)C=C1CC[C@@H]1[C@@H]2[C@@H](O)C[C@@]2(C)[C@H]1CC[C@]2(O)C(=O)CO` [prednisolone]: in assay [2], the “CD31 staining in bone tissue” value is on record as “improvement” and the “joint swelling induced by intra-articular MSU injection” value was “improvement”.
On to `CCN1CCC(S(=O)(=O)NC(=O)Nc2c3c(cc4c2CCC4)CCC3)CC1` [selnoflast, reference compound], for which the “IL-1β Imax” value with IL-1β worked out at 79%. The IC50 in the assay with IL-1β (Homo sapiens, Macrophage) was 746 nM; in the assay on Caspase-1 activity [3] (Homo sapiens, Macrophage) it was 843 nM. Also, the “Caspase-1 activity Imax” value in the assay with Caspase-1 activity [3] came to 89%. For the same molecule, in assay [2], the “CD31 staining in bone tissue” value is recorded as “improvement”. The “joint swelling induced by intra-articular MSU injection” value in assay [2] is on record as “improvement”.
